ChEMBL document CHEMBL3132764, “-Aminophosphonates as novel anti-leishmanial chemotypes: synthesis, biological evaluation, and CoMFA studies” (Medchemcomm, 2014)

Legend:
[1] = Selectivity index, ratio of CC50 for mouse J774A1 cells to IC50 for promastigote stage of wild type Leishmania donovani MHOM/80/IN/Dd8; format: functional, J774.A1
[2] = tested on: Leishmania donovani; experiment: Antileishmanial activity against promastigote stage of wild type Leishmania donovani MHOM/80/IN/Dd8 after 48 hrs by MTT assay; format: functional, organism-based; conditions: MHOM/80/IN/Dd8, 48 h
[3] = Cytotoxicity against mouse J774A1 cells after 48 hrs by MTT assay; format: cell-based, J774.A1
[4] = Half life in human; format: ADME, organism-based; conditions: in vivo

| SMILES | Ratio CC50/IC50 [1] | IC50 ([2]; read-out: IC50) [µM] | IC50 ([2]; read-out: pIC50 (converted)) [µM] | CC50 at 48 h [3] [µM] | half-life [4] [h] |
| --- | --- | --- | --- | --- | --- |
| COP(=O)(OC)C1(Nc2ccccc2)CCCCC1 | 0.46 | 16.4 | 16.2 | 7.5 | – |
| COP(=O)(OC)C(Nc1ccccc1)c1ccccc1 (racemic) | 0.93 | 13.5 | 13.5 | 12.5 | – |
| COP(=O)(OC)C(Nc1ccccc1)C1CCCCC1 (racemic) | – | > 100 | – | 14 | – |
| COP(=O)(OC)C(Nc1ccccc1)c1ccc(N(C)C)cc1 (racemic) | – | > 100 | – | 5 | – |
| COP(=O)(OC)C(Nc1ccccc1)c1cccc(O)c1 (racemic) | – | > 100 | – | > 100 | – |
| COc1ccc(C(Nc2cc(C)on2)P(=O)(OC)OC)cc1 (racemic) | 0.94 | 8 | 7.94 | 7.5 | – |
| COc1ccc(C(Nc2nc3c(C)cccc3s2)P(=O)(OC)OC)cc1 (racemic) | 0.97 | 8.75 | 8.71 | 8.5 | – |
| COP(=O)(OC)C(Nc1ccccc1)c1ccc([N+](=O)[O-])cc1 (racemic) | 0.56 | 8.95 | 8.91 | 5 | – |
| COP(=O)(OC)C(Nc1ccccc1)c1ccccc1O (racemic) | 0.56 | 8.95 | 8.91 | 5 | – |
| COc1ccc(C(Nc2ccccc2)P(=O)(OC)OC)cc1O (racemic) | 3.18 | 9.75 | 9.77 | 31 | – |
| COP(=O)(OC)C(C)(Nc1ccccc1)c1ccccc1 (racemic) | 0.44 | 13.5 | 13.5 | 6 | – |
| COc1cc(C(Nc2ccccc2)P(=O)(OC)OC)cc(OC)c1O (racemic) | 0.74 | 13.5 | 13.5 | 10 | – |
| COP(=O)(OC)C(/C=C/c1ccccc1)Nc1ccccc1 (racemic) | 0.46 | 17.5 | 17.4 | 8 | – |
| COc1ccccc1C(Nc1ccccc1)P(=O)(OC)OC (racemic) | 0.33 | 18 | 18.2 | 6 | – |
| COc1ccc(C(Nc2nc3c(Cl)cccc3s2)P(=O)(OC)OC)cc1 (racemic) | – | 22 | 21.9 | – | – |
| COP(=O)(OC)C(Nc1ccccc1)c1ccccc1Br (racemic) | 0.24 | 22.5 | 22.4 | 5.5 | – |
| COP(=O)(OC)C(Nc1ccccc1)c1ccccc1F (racemic) | 0.5 | 24 | 24 | 12 | – |
| COc1ccc(C(Nc2ccccc2)P(=O)(OC)OC)cc1 (racemic) | 0.22 | 25 | 25.1 | 5.5 | – |
| COP(=O)(OC)C(Nc1cc(C)on1)c1ccccc1 (racemic) | – | 30 | 30.2 | – | – |
| COP(=O)(OC)C(Nc1ccccc1)c1ccc(Cl)cc1 (racemic) | 1.08 | 36 | 36.3 | 39 | – |
| COP(=O)(OC)C(Nc1ccccc1)c1ccc(Br)cc1 (racemic) | 0.17 | 39 | 38.9 | 6.5 | – |
| COP(=O)(OC)C(Nc1ccccc1)c1cccc2ccccc12 (racemic) | – | 56 | 56.2 | > 100 | – |
| COP(=O)(OC)C(Nc1ccccc1)c1ccccn1 (racemic) | 0.06 | 90 | 89.1 | 5 | – |
| COP(=O)(OC)C(Nc1ccccc1)c1ccc2ccccc2c1 (racemic) | 0.07 | 91.5 | 91.2 | 6.1 | – |
| COc1cc(C(Nc2ccccc2)P(=O)(OC)OC)ccc1O (racemic) | 0.7 | 7.1 | 7.08 | 5 | – |
| COP(=O)(OC)C(Nc1ccccc1)c1ccc(O)cc1 (racemic) | 0.81 | 8 | 7.94 | 6.5 | – |
| C[C@@H]1[C@H](O)[C@@H](C)/C=C/C=C/C=C/C=C/C=C/C=C/C=C/[C@H](O[C@@H]2O[C@H](C)[C@@H](O)[C@H](N)[C@@H]2O)C[C@@H]2O[C@](O)(C[C@@H](O)C[C@@H](O)[C@H](O)CC[C@@H](O)C[C@@H](O)CC(=O)O[C@H]1C)C[C@H](O)[C@H]2C(=O)O [AMPHOTERICIN B] | 17.28 | 0.405 | – | 7 | – |
| CCCCCCCCCCCCCCCCOP(=O)([O-])OCC[N+](C)(C)C [MILTEFOSINE] | – | – | – | – | 144 |
